For assay [1], the system named is HMC-1-8. As to the kind of experiment: Antiproliferation assay HMC-1-8 (Assay 7). In kind it is cell-based. The method, then: Assessment of the Anti-Proliferative Effect of Compounds in Different Cell Lines
The impact of compounds on the proliferation of different cell lines was assessed using the CellTiter-Glo® Luminescent Cell Viability reagent from Promega (G7573).
In parallel, cells were plated in a reference (day 0) plate for time zero determination.
Rim wells were excluded. The cells were incubated for 72 h hours in a humidified incubator at 37° C. The day 0 plate was measured by adding 30 μL/well of CTG solution (CellTiter-Glo® Luminescent Cell Viability reagent, Promega G7573) to time zero wells in the reference plate followed by a 10 minutes incubation and luminescence reading at 0.1 ms. using the PHERAstar FS microplate reader (BMG Labtech).
After 72 h incubation, the treated plates were measured in the same way as the day 0 plate mentioned above.

Assay [2] deals with MCL-1 (Homo sapiens (Human), UniProt Q07820, K194A/K197A/R201A). As to the kind of experiment: Protein-compound interaction assay (SPR assay, Assay 8). In kind it is binding. As to conditions: immobilized MBP-MCL-1, 25° C., geometric mean. An excerpt: Assay 8 Protein-Compound Interaction Assay (SPR Assay)
Chain of MCL-1 (Q07820 whole entry K194A/K197A/R201A, looked up): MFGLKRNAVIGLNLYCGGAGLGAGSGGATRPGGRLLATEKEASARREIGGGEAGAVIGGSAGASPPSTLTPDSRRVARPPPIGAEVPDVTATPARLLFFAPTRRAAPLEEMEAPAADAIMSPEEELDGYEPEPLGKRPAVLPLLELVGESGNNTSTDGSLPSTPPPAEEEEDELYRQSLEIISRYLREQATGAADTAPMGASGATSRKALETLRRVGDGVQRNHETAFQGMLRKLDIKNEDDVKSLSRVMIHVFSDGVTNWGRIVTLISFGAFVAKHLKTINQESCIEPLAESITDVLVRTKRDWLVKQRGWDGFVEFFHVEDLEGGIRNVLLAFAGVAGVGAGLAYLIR
The ability of the compounds described in this invention to bind to MCL-1 may be determined using surface plasmon resonance (SPR). This allows for the quantification of binding in terms of the equilibrium dissociation constant (KD [M]), as well as association and dissociation rate constants (kon [1/M 1/s] and koff [1/s], respectively). The measurements may be performed using Biacore® T200 or Biacore® S200 instruments (GE Healthcare).
For SPR measurements, recombinant MCL-1 (amino acids 173-321, N-terminal fused to Maltose Binding Protein (MBP) (SEQ ID 1) purchased from Beryllium (Bedford, Mass., USA)) was immobilized using standard amine coupling (Johnsson B et al, Anal Biochem. 1991 Nov. 1; 198(2):268-77). Briefly, carboxymethylated dextran biosensor chips (Series S Sensor Chip CMS, GE Healthcare) were activated with 1-ethyl-3-(3-dimethylaminopropyl)-carbodiimide hydrochloride (EDC) and N-hydroxysuccinimide (NHS) according to the supplier's instructions. MBP-MCL-1 was diluted in 1×PBS-P+ (GE Healthcare) and injected on the activated chip surface. Subsequently, a solution of 1 M ethanolamine-HCl (GE Healthcare) was injected to block unreacted groups, resulting in approximately 400-2500 response units (RU) of immobilized protein. A reference surface was generated by treatment with NHS-EDC and ethanolamine-HCl. […] For SPR binding-measurements, serial dilutions of compound (eight dilution steps, typically ranging from 0.2 nM up to 1 μM) were injected over immobilized protein. […] Compounds were injected for 60 s followed by a dissociation time of up to 1000 s.
The double-referenced sensorgrams were fit to a simple reversible Langmuir 1:1 reaction mechanism as implemented in the Biacore® T200 and S200 evaluation software (T200 evaluation software version 2.0 and S200 evaluation software version 1.0, GE Healthcare).
(In general: In SPR one partner is held on a chip, and binding of the other changes the refractive index at the surface.)

The test system of assay [3] is AMO-1. As to the kind of experiment: Antiproliferation assay AMO-1 (Assay 7). In kind it is cell-based. As to conditions: AMO-1 cells, CellTiter-Glo, single determinations, read-out: IC50 Antiproli AMO-1. The essentials:
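Treated cells sat 72 h in a humidified 37 °C incubator, outer wells unused, before CellTiter-Glo reagent and a 10 min wait preceded luminescence reading; identical measurement of a parallel day 0 plate defined time zero.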
A general note: In ATP-based viability assays light output follows the ATP content of the culture.

The target of assay [4] is MCL1 protein (Homo sapiens (Human), UniProt Q07820). As to the kind of experiment: PIxEL: protein-protein interaction in permeabilized cells by ELISA (Assay 5). In kind it is cell-based. The following applies: permeabilized RKO cells, biotin-BIM BH3 peptide, median. The method, then: Assay 5 PI×EL: Protein-Protein Interaction in Permeabilized Cells by ELISA
Chain of MCL1 protein (Q07820 whole entry, the tested form may be a part): as the sequence (Q07820 whole entry K194A/K197A/R201A, looked up) above, with A194K, A197K, A201R counted along it
Most MCL1 protein molecules are localized at the mitochondria outer membrane and sequester pro-apoptotic proteins through binding of their BCL2 homology domain 3 (BH3 domain). MEB buffer (150 mM mannitol, 10 mM HEPES pH 7.5, 50 mM KCl, 20 μM EDTA, 20 μM EGTA, 5 mM potassium succinate, 0.1% protease-free BSA (SIGMA) with low dose digitonin (0.002%) permeabilizes plasma membrane while leaves live mitochondria, where MCL1 maintains its native localization and conformation. Unlike biophysical assays (e.g. TR-FRET) that use truncated recombinant MCL1 protein, this assay uses full length endogenous MCL1 protein at mitochondria outer membrane. It measures the interaction between MCL1 protein and biotinylated BIM BH3 peptide. Compounds can compete with BIM BH3 peptide to bind to MCL1 protein. This serum free assay measures the affinity between MCL1 protein and compound in permeabilized cells, therefore it is not affected by serum binding and cell permeability, and can measure the intrinsic compound affinity.
On day 1, RKO colon cancer cell line cells were plated at 0.8 million cells/ml, 100 μl/well in 96-well flat bottom TC plates (Corning). MCL1 antibody (Santa Cruz sc-12756) were diluted at 200 fold (final concentration 1 μg/ml) in carbonate buffer (Thermo Fisher Scientific, pH 9.6), and 50 μl of diluted antibody was added to each well of high bind ELISA plates (SARSTEDT). Each plate was tapped to make sure liquid covering entire bottom of wells and incubate at 37° C. overnight.
On the second day, MCL1 antibody was washed from ELISA plate. 250 μl Odyssey® Blocking Buffer (PBS) (Li-Cor) was added to each well, incubated at room temperature for at least 1 hour, then washed once with 250 μl 1×PBST. Plates with RKO cells were gently washed once with 100 μl/well PBS, once with 100 μl/well MEB buffer without digitonin, then 100 μl of MEB buffer with 0.002% digitonin was gently added to each well. Compounds were added with HP Tecan compound dispenser in 3-fold dilution series, highest dose 30 μM, 10-dose per compound in quadruplicates. Biotin-BIM peptide (synthesized by 21st Century) was added with HP Tecan compound dispenser at 0.2 μM immediately after the addition of compounds. Plates were rocked for 1 hour at room temperature. Then MEB buffer was aspirated and 50 μl of CHAPS buffer (50 mM Tris-Cl, pH 7.4, 150 mM NaCl, 1% CHAPS, 1 mM EDTA, 1 mM EGTA, complete protease inhibitors (Roche), PhosSTOP (Roche)) was added to each well. Plates were rocked for 1 hour at 4° C., then 45 μl cell lysate from each well were transferred to ELISA plates coated with MCL1 antibody. Plates were incubated overnight in the cold room with rocking.
On the third day, ELISA plates were washed once with 250 μl 1×PBST. Streptavidin-poly-HRP (Thermo Fisher Scientific) was diluted to 20 ng/ml in Odyssey blocking buffer plus 0.05% Triton-100, and 100 μl was added to each well of the ELISA plate. Plates were incubated at room temperature for 1 hour with rocking, then washed with 100 μL 1×PBST for 3 times. Each SuperSignal ELISA Femto Maximum Sensitivity substrate was added to a 50-ml tube and mixed, then 100 μl of mixed substrate was added to each well. Plates were shaken for 1 minute then luminescence was measured by Envision plate reader […]. Signal of each well were normalized by no-compound control and no-cell control. IC50 was calculated using Graphic Pad PRISM software.

[5] abbreviates: 72 h, HMC-1-8 cells, CellTiter-Glo, single determinations, read-out: IC50 Antiproli HMC-1-8.
Setting [6] is: HMC-1-8 cells, 72 h, CellTiter-Glo; single determinations; read-out: IC50 Antiproli HMC-1-8.

The text below walks through data of patent publication US11286263B2, “Macrocyclic fluorine substituted indole derivatives” (The Broad Institute, Inc., priority 2017, dated 2022).

By pIC50 is commonly meant −log10 of the IC50, conventionally taken in molar units. The term pKd denotes the negative decadic logarithm of the Kd, by convention in mol/L. A low value points to a high Kd. A word on the kon: it is the rate constant with which the complex forms. A high value points to faster complex formation. Broadly, the koff is the first-order rate constant of dissociation. One may read the IC50 as the point on the concentration scale where inhibition reaches its midpoint. A lower IC50 goes with higher potency.

pIC50, pKd: −log10 of the molar value. Counter-ions that a name gives are not always drawn. Like-named read-outs stand apart in the source and are kept apart here.

Take `Cc1c2c(nn1C)COCCCCn1c(C(=O)O)c(CCCOc3cccc4ccccc34)c3ccc(F)c-2c31` (racemic) [Example 2, (rac)-4-fluoro-2,3-dimethyl-7-[3-(naphthalen-1-yloxy)propyl]-2,10,11,12,13,15-hexahydro-pyrazolo[4′,3′:9,10][1,6]oxazacycloundecino[8,7,6-hi]indole-8-carboxylic acid]: the pIC50 in assay [1] (setting [5]) was 5.00; in assay [1] (HMC-1-8 cells, 72 h, CellTiter-Glo; single determinations; listed as 02; read-out: IC50 Antiproli HMC-1-8), 5.12; in assay [3] (72 h, listed as 02) it was 5.72; in assay [3] (Homo sapiens, AMO1, 72 h) it was 5.61. Besides, the pKd in assay [2] was 7.37. Further, the kon in assay [2] was 230000 M⁻¹ s⁻¹. Also, the koff in assay [2] (read-out: koff) worked out at 0.01 s⁻¹.
As for `Cc1c2c(nn1C)COCCCCn1c(C(=O)O)c(CCCOc3cccc4ccccc34)c3ccc(F)c-2c31` (single isomer, unassigned; enantiomer 1) [Example 3, 4-fluoro-2,3-dimethyl-7-[3-(naphthalen-1-yloxy)propyl]-2,10,11,12,13,15-hexahydropyrazolo-[4′,3′:9,10][1,6]oxazacycloundecino[8,7,6-hi]indole-8-carboxylic acid-N-ethylethanamine salt (enantiomer 1)], the pIC50 in assay [1] (setting [5]) was 5.21; in assay [3] (Homo sapiens, AMO1, 72 h) it was 5.70. In assay [4], this compound displayed an IC50 of 1400 nM. Further, the negative-log Kd (pKd) in assay [2] is 8.38. The same compound yielded a kon in assay [2] of 4.6e+06 M⁻¹ s⁻¹. Further, the koff in assay [2] (read-out: koff) amounted to 0.019 s⁻¹.
`CCc1c2c(nn1C)COCCCCn1c(C(=O)O)c(CCCOc3cccc4cc(F)ccc34)c3ccc(F)c-2c31` (single isomer, unassigned; enantiomer 1) [Example 22, 3-ethyl-4-fluoro-7-{3-[(6-fluoronaphthalen-1-yl)oxy]propyl}-2-methyl-2,10,11,12,13,15-hexahydropyrazolo[4′,3′:9,10][1,6]oxazacycloundecino[8,7,6-hi]indole-8-carboxylic acid-N-ethylethanamine salt (enantiomer 1)]: the pIC50 in assay [1] (setting [5]) is 5.61. In addition, the pIC50 in assay [1] (setting [6]) is 5.45. Further, the IC50 in assay [4] came out at 1340 nM. For the same compound, in assay [2], the pKd is 8.80, the “koff” value is 0.0072 s⁻¹ and the “kon [1/M 1/s]” value is recorded as 4.4E6 1/M 1/s.
For `CCc1c2c(nn1C)COCCCCn1c(C(=O)O)c(CCCOc3cccc4cc(F)ccc34)c3ccc(F)c-2c31` (single isomer, unassigned; enantiomer 1) [Example 24, 3-ethyl-4-fluoro-7-{3-[(6-fluoronaphthalen-1-yl)oxy]propyl}-2-methyl-2,10,11,12,13,15-hexahydropyrazolo[4′,3′:9,10][1,6]oxazacycloundecino[8,7,6-hi]indole-8-carboxylic acid (enantiomer 1)], the negative logarithm of the IC50 (pIC50) in assay [1] (setting [6]) is 5.60. In assay [4], inhibition was half-maximal at 424 nM (IC50). In assay [2], this compound gave a pKd of 8.54 and a kon of 3.3e+06 M⁻¹ s⁻¹. Also, the koff in assay [2] (read-out: koff) was found to be 0.0097 s⁻¹. In addition, the pIC50 in assay [3] (72 h) was 6.06.
On to `CCc1nn(C)c2c1-c1c(F)ccc3c(CCCOc4cccc5cc(F)ccc45)c(C(=O)O)n(c13)CCCCOC2` (single isomer, unassigned; enantiomer 1) [Example 39, 3-ethyl-4-fluoro-7-{3-[(6-fluoronaphthalen-1-yl)oxy]propyl}-1-methyl-1,10,11,12,13,15-hexahydropyrazolo[4′,3′:9,10][1,6]oxazacycloundecino[8,7,6-hi]indole-8-carboxylic acid-N-ethylethanamine salt (enantiomer 1)], for which the pIC50 is 5.50 in assay [1] (setting [5]) and 5.76 in assay [3] (72 h). In assay [4], 2380 nM corresponded to half-maximal inhibition (IC50). This compound had a pKd in assay [2] of 8.82. For the same compound, the kon in assay [2] amounted to 1.4e+07 M⁻¹ s⁻¹. Also, the koff in assay [2] (read-out: koff) was 0.021 s⁻¹.
